Test results as given in patent US9902681B2, “N-3 immunoresolvents: structures and actions” (THE BRIGHAM AND WOMEN'S HOSPITAL, INC., priority 2013, dated 2018).

Assays:
neutrophil recruitment = experiment: Zymosan peritonitis, neutrophil recruitment into the peritoneum; set-up: species or system mouse; conditions: administered in vivo (as mixtures, FIG. 5); result in words
Method: FIG. 5. n-3 DPA immunoresolvents display potent anti-inflammatory actions in vivo. The indicated n-3 DPA-derived product mixtures were administered by intravenous injection 10 min prior to the intraperitoneal administration of zymosan (0.1 mg, 500 μl PBS) to 6-8-week-old male FvB mice. At 4 h, peritoneal exudates were collected and the (a) number of infiltrated neutrophils was assessed by light microscopy and flow cytometry. Exudate levels for the pro-inflammatory mediators (b) IL6 and (c) MCP-1 were determined by cytokine array. The ratio of RvD1n-3 DPA to RvD2n-3 DPA was ˜3:1 (A), the ratio of MaR1n-3 DPA to MaR2n-3 DPA was ˜4:1 (B); the ratio of RvD5n-3 DPA to PD1n-3 DPA was ˜9:1 (C). Results are mean±SEM. n=4 mice per group (*P<0.05; vs. vehicle group). Results are mean±SEM. n=4. *P<0.05, **P<0.01 vs. zymosan mice.
It was then determined whether these novel structures carried bioactivity.
Zymosan (0.1 mg) was injected intraperitoneally (i.p.) in 1 ml of sterile saline. Exudates were collected at 0, 4, 12 and 24 h post zymosan. Leukocyte numbers and differential counts in the peritoneal exudates were determined as in^16. In designated experiments, mice were administered intravenously (i.v): Vehicle (saline containing 0.1% EtOH), or the indicated mixture of n-3 DPA-derived products at 100 ng/mouse 5 min prior to i.p. zymosan administration (0.1 mg). After 4 h the exudates were collected and the number of extravasated neutrophils determined using Turks solution and flow cytometry as above.

[1] = test system: infiltrated leukocytes into the lungs / lung tissue damage; experiment: Murine hind limb ischemia reperfusion, second organ (lung) injury: histology and lung MPO; assay type: in vivo, mouse; conditions: i.v. 10 min prior to reperfusion; RvD1 500 ng (FIG. 1) or 0.5 ng (Methods); result in words
Method: (a) Structures of DHA and n-3 DPA. (b) Ischemia was induced by applying tourniquets to the hind limb of 6-8-week-old male FvB mice. After 1 h, tourniquets were removed and reperfusion ensued for 3 h. 10 min prior to reperfusion, vehicle (saline containing 0.1% EtOH), RvD1 (500 ng) or a mixture of n-3 DPA-derived products (see Methods for details) were administered intravenously. At the end of reperfusion, lungs were collected; (c) tissue histology by H&E staining (×200) and (d) MPO levels were assessed. (e) Blood was collected, incubated with rat anti-mouse Ly6G and rat anti-mouse CD41 antibodies and neutrophil leukocyte aggregates were assessed by flow cytometry. (f) Plasma prostanoid and (g) leukotriene levels were assessed by lipid mediator metabololipidomics. Results are mean±SEM. n=4 mice per group. (*P<0.05; vs. vehicle group). Results c are representative n=4. Results d-e are mean±SEM. n=4. *P<0.05, **P<0.01 vs. vehicle mice. […]
Mice were anesthetized by intraperitoneal injection of a mixture of […]. […] The frozen lungs were homogenized from individual mice, centrifuged and the tissue myeloperoxidase (MPO) levels were determined using a mouse MPO ELISA (R&D Systems.).

[2] = test system: human monocyte-derived macrophages; experiment: Macrophage phagocytosis of fluorescently labeled zymosan; assay type: cell-based; conditions: 1 nM, 15 min, 37° C.; then labeled zymosan 60 min
Method: (§1) FIG. 7. Reduction in human neutrophil chemotaxis, neutrophil-endothelia cell adhesion and stimulation of macrophage phagocytosis by n-3 DPA-derived immunoresolvents. (a) Left panel: micrographs depict PKH26-labeled neutrophils adherent to WGA-Alexafluor® 488-labeled HUVEC stimulated with TNF-α (10 ng/ml, 4 h, 37° C., 0.1% FCS) with or without n-3 DPA resolvins (1 nM, 15 min, 37° C., pH7.45; ×40 magnification). Right panel: Fluorescently labeled human neutrophils were incubated with vehicle (0.1% EtOH in PBS) or n-3 DPA products. These were then added to TNF-α-stimulated HUVEC and incubated for 30 min (37° C.), non-adherent cells were washed and extent of neutrophil adhesion assessed using a SpectraMax M3 Plate reader. (b) Neutrophils were incubated with vehicle (0.1% EtOH in PBS) or n-3 DPA products (1 nM, 15 min, 37° C., pH7.45) prior to loading on ChemoTx chambers and assessing chemotaxis towards IL-8 (100 ng/ml, 90 min, 37° C., pH7.45). […] After 60 min (37° C., pH7.45), the incubation was stopped, extracellular fluorescence quenched using trypan blue and phagocytosis assessed using a SpectraMax M3 Plate reader. […]
Macrophages were prepared and phagocytosis was assessed as in^16. […] Phagocytosis was assessed using an M3 SpectraMax plate reader.

human neutrophils = experiment: Neutrophil chemotaxis towards IL-8 (ChemoTx); assay type: cell-based; conditions: 1 nM, 15 min, 37° C.; IL-8 100 ng/ml, 90 min
Method: as §1, with “reader.” for “reader. (b) Neutrophils were incubated with vehicle (0.1% EtOH in PBS) or n-3 DPA products (1 nM, 15 min, 37° C., pH7.45) prior to loading on ChemoTx chambers and assessing chemotaxis towards IL-8 (100 ng/ml, 90 min, 37° C., pH7.45).”
Peripheral blood neutrophils were obtained from healthy volunteers as in^17. […] 2.5×10^4 cells were then added to the upper chamber of the ChemoTx System (3 μm pore size filter) and chemotaxis towards IL8 (100 ng/ml) was assessed (90 min, 37° C., 5% CO2). The number of cells migrated into the bottom chamber was determined using Alama Blue following manufacturer's instructions on a Spectra Max M3 microplate reader (Molecular Devices Inc., Sunnyvale, Calif.).

[3] = test system: human neutrophils adhering to TNF-α activated endothelial cells (HUVEC); experiment: Human neutrophil-endothelial cell adhesion; assay type: cell-based; conditions: 1 nM, 15 min, 37° C.; HUVEC stimulated with TNF-α 10 ng/ml, 4 h; vs vehicle
Method: as §1
HUVEC were purchased from Lonza and cultured to passage 4. […] The plates were then washed with DPBS to remove non-adherent cells and the number of adherent neutrophils assessed using a Spectra Max M3 microplate reader.

Structure (SMILES) | neutrophil infiltration in murine peritonitis (neutrophil recruitment) | further results
CC/C=C\C/C=C\CC(O)C=CC=CC=CC(O)CCCCCC(=O)O (stereo not shown) [MaR1n-3 DPA, 7,14-dihydroxy-8,10,12,16Z,19Z-docosapentaenoic acid] | reduced neutrophil infiltration | –
CC/C=C\C/C=C\CC(O)C(O)C=CC=C/C=C\CCCCCC(=O)O (stereo not shown) [MaR2n-3 DPA, 13,14-dihydroxy-7Z,9,11,16Z,19Z-docosapentaenoic acid] | reduced neutrophil infiltration | –
CC/C=C\CC(O)C=CC=CC=CC(O)C/C=C\CCCCCC(=O)O (stereo not shown) [PD1n-3 DPA, 10,17-dihydroxy-7Z,11,13,15,19Z-docosapentaenoic acid] | reduced neutrophil infiltration | –
CC/C=C\C[C@H](O)/C=C/C=C\C=C\C=C\[C@@H](O)[C@@H](O)C/C=C\CCC(=O)O [RvD1, 7S,8R,17S-trihydroxy-4Z,9E,11E,13Z,15E,19Z-docosahexaenoic acid] | – | protection from secondary organ injury (lung tissue damage, infiltrated leukocytes) [1]: protection
CC/C=C\CC(O)/C=C/C=CC=CC=CC(O)C(O)CCCCCC(=O)O (stereo not shown) [RvD1n-3 DPA, 7,8,17-trihydroxy-9,11,13,15E,19Z-docosapentaenoic acid] | reduced neutrophil infiltration | –
CC/C=C\C[C@H](O)[C@H](O)/C=C/C=C/C=C\C=C\[C@@H](O)C/C=C\CCC(=O)O [RvD2, 7S,16R,17S-trihydroxy-4Z,8E,10Z,12E,14E,19Z-docosahexaenoic acid] | – | increase in macrophage phagocytosis (uptake) of zymosan [2]: ~50%; reduction in neutrophil chemotaxis towards an IL-8 gradient (human neutrophils): ~42%; reduction in neutrophil adhesion to TNF-α activated endothelial cells [3]: ~30%
CC/C=C\CC(O)C(O)/C=C/C=CC=CC=CC(O)CCCCCC(=O)O (stereo not shown) [RvD2n-3 DPA, 7,16,17-trihydroxy-8,10,12,14E, 19Z-docosapentaenoic acid] | reduced neutrophil infiltration | –
CC/C=C\C[C@H](O)/C=C/C=C\C/C=C\C=C\[C@@H](O)CCCCCC(=O)O [RvD5n-3 DPA, 7,17-trihydroxy-8E,10,13,15E,19Z-docosapentaenoic acid] | reduced neutrophil infiltration | –
